Legend:
Conditions in all cases: human; call rule not given here
[1] = test system: Hepatotoxicity; experiment: FDA HLAED, liver enzyme composite activity
[2] = test system: Hepatotoxicity; experiment: FDA HLAED, alkaline phosphatase increase
[3] = test system: Hepatotoxicity; experiment: FDA HLAED, serum glutamic oxaloacetic transaminase (SGOT) increase
[4] = test system: Hepatotoxicity; experiment: FDA HLAED, serum glutamic pyruvic transaminase (SGPT) increase
[5] = test system: Hepatotoxicity; experiment: FDA HLAED, lactate dehydrogenase (LDH) increase
[6] = test system: Hepatotoxicity; experiment: FDA HLAED, gamma-glutamyl transferase (GGT) increase
Throughout, for GGT Increase - Index Value: reference of the scale not given here.
Throughout, for LDH Increase - Index Value: reference of the scale not given here.

| SMILES | Alkaline Phosphatase Increase - Activity Score [2] | Alkaline Phosphatase Increase - Index Value [2] | Alkaline Phosphatase Increase - Number of Reports [2] | SGOT Increase - Activity Score [3] | SGOT Increase - Index Value [3] | SGOT Increase - Number of Reports [3] | SGPT Increase - Activity Score [4] | SGPT Increase - Index Value [4] | SGPT Increase - Number of Reports [4] | LDH Increase - Activity Score [5] | LDH Increase - Index Value [5] | LDH Increase - Number of Reports [5] | GGT Increase - Activity Score [6] | GGT Increase - Index Value [6] | GGT Increase - Number of Reports [6] | Composite Activity - Active [1] | Composite Activity - Marginal [1] | Composite Activity - Score [1] | further results |
| --- | --- | --- | --- | --- | --- | --- | --- | --- | --- | --- | --- | --- | --- | --- | --- | --- | --- | --- | --- |
| O=C(O)COCCN1CCN(C(c2ccccc2)c2ccc(Cl)cc2)CC1 (stereo unspecified) [CETIRIZINE] | Inactive | 0 | < 4 | Inactive | 1 | < 4 | Inactive | 1.3 | >= 4 | Inactive | 1 | < 4 | Inactive | 0.6 | < 4 | – | – | – | Composite Activity - Active ([1]; Liver): 0; Composite Activity - Marginal ([1]; Liver): 0; Composite Activity - Score ([1]; Liver): Inactive |
| C[C@H](CCC(=O)O)[C@H]1CC[C@H]2[C@@H]3[C@H](O)C[C@@H]4C[C@H](O)CC[C@]4(C)[C@H]3CC[C@]12C [CHENODIOL] | Inactive | 0 | < 4 | Inactive | 0 | < 4 | Inactive | 0 | < 4 | Inactive | 0 | < 4 | Inactive | 0 | < 4 | 0 | 0 | Inactive | – |
| Cc1cc(C2CCCCC2)n(O)c(=O)c1 [CICLOPIROX] | Inactive | 0 | < 4 | Inactive | 0 | < 4 | Inactive | 0 | < 4 | Inactive | 0 | < 4 | Inactive | 0 | < 4 | 0 | 0 | Inactive | – |
| Nc1ccn(C[C@@H](CO)OCP(=O)(O)O)c(=O)n1.O.O [CIDOFOVIR] | Active | 92.2 | < 4 | Inactive | 46.1 | < 4 | Inactive | 0 | < 4 | Inactive | 46.1 | < 4 | Inactive | 0 | < 4 | 1 | 0 | Inactive | – |
| CCn1nc(C(=O)O)c(=O)c2cc3c(cc21)OCO3 [CINOXACIN] | Inactive | 0 | < 4 | Active | 16.9 | >= 4 | Active | 15.1 | >= 4 | Inactive | 0 | < 4 | Inactive | 0 | < 4 | 2 | 0 | Active | – |
| O=C(O)c1cn(C2CC2)c2cc(N3CCNCC3)c(F)cc2c1=O [CIPROFLOXACIN] | Inactive | 2.3 | >= 4 | Marginally Active | 3.1 | >= 4 | Inactive | 2.1 | >= 4 | Inactive | 0.9 | >= 4 | Inactive | 0.8 | >= 4 | – | – | – | Composite Activity - Active ([1]; Liver): 0; Composite Activity - Marginal ([1]; Liver): 1; Composite Activity - Score ([1]; Liver): Inactive |
| COc1cc(N)c(Cl)cc1C(=O)NC1CCN(CCCOc2ccc(F)cc2)CC1OC (stereo unspecified) [CISAPRIDE] | Inactive | 0.2 | >= 4 | Inactive | 0.3 | >= 4 | Inactive | 0.4 | >= 4 | Inactive | 0.1 | < 4 | Inactive | 0.2 | < 4 | 0 | 0 | Inactive | – |
| Nc1nc(Cl)nc2c1ncn2[C@H]1C[C@H](O)[C@@H](CO)O1 [CLADRIBINE] | Inactive | 16.2 | < 4 | Inactive | 16.2 | < 4 | Inactive | 16.2 | < 4 | Inactive | 0 | < 4 | Inactive | 8.1 | < 4 | 0 | 0 | Inactive | – |
| CC[C@H]1OC(=O)[C@H](C)[C@@H](O[C@H]2C[C@@](C)(OC)[C@@H](O)[C@H](C)O2)[C@H](C)[C@@H](O[C@@H]2O[C@H](C)C[C@H](N(C)C)[C@H]2O)[C@](C)(OC)C[C@@H](C)C(=O)[C@H](C)[C@@H](O)[C@]1(C)O [CLARITHROMYCIN] | Marginally Active | 3.1 | >= 4 | Marginally Active | 3.8 | >= 4 | Marginally Active | 3.3 | >= 4 | Inactive | 1.4 | >= 4 | Inactive | 1.5 | >= 4 | 0 | 3 | Inactive | – |
| C[C@H]1C[C@H]2[C@@H]3CCC4=CC(=O)C=C[C@]4(C)[C@@]3(F)[C@@H](O)C[C@]2(C)[C@@]1(O)C(=O)CCl [CLOBETASOL] | Inactive | 0 | < 4 | Inactive | 0 | < 4 | Inactive | 0 | < 4 | Inactive | 0 | < 4 | Inactive | 0 | < 4 | 0 | 0 | Inactive | – |
| CC(C)/N=c1\cc2n(-c3ccc(Cl)cc3)c3ccccc3nc-2cc1Nc1ccc(Cl)cc1 [CLOFAZIMINE] | Active | 76.9 | < 4 | Active | 76.9 | < 4 | Active | 102.6 | >= 4 | Inactive | 25.6 | < 4 | Active | 51.3 | < 4 | 4 | 0 | Active | – |
| CN(C)CCCN1c2ccccc2CCc2ccc(Cl)cc21 [CLOMIPRAMINE] | Inactive | 0 | < 4 | Inactive | 0 | < 4 | Inactive | 0 | < 4 | Inactive | 0 | < 4 | Inactive | 0 | < 4 | 0 | 0 | Inactive | – |

— ChEMBL document CHEMBL1697781, “Assessment of the health effects of chemicals in humans: II. Construction of an adverse effects database for QSAR modeling” (Curr Drug Discov Technol, 2004)
